In patent publication US9493460B2, “Diimide compounds” (UCL BUSINESS PLC, priority 2013, dated 2016):
Read-outs that look alike come from different tables or passages of the source.

Assays:
RCC4 (renal) cells = assay: SRB growth inhibition assay, 96 hr exposure, RCC4; format: cell-based, human
Method: (§1) Human cancer cell lines, MCF7 (breast), A549 (lung), Mia-PaCa2, PANC1 and HPAC (pancreatic), RCC4 and 786-0 renal, and the somatic human cell line WI-38 (lung fibroblast) were purchased from ATCC. Cell lines were maintained in appropriate medium supplemented with 10% foetal bovine serum (Invitrogen, UK), 2 mM L-glutamine (Invitrogen, Netherlands), and other components as specified by the suppliers. Cell lines were maintained at 37° C., 5% CO2 and routinely passaged. Drugs were dissolved in DMSO and filtered through 0.22 μm pore-size filter units before addition to cell line appropriate media. Cellular growth inhibition was measured using the sulforhodamine B (SRB) assay in 96 well plates as described previously.^1,2 Fifty percent inhibitory concentrations (IC50) were determined by taking the mean absorbance at 540 nm for each drug concentration expressed as a percentage of the absorbance of untreated control wells.
(§2) The anti-proliferative activity of the group of nine ND derivatives was assessed using the SRB assay following 96 h exposure to 2-fold serial dilutions of each compound (Table 2) in a panel of cancer cell lines together with a normal fibroblast line. […] In contrast the morpholine compounds all show sub-μM anti-proliferative activity in at least some of the cancer cell lines used and the two compounds 3d, 3h with n=3 —(CH2)n— linkers to the morpholine groups, show particularly potent activity in the Mia-PaCa2 and PANC1 pancreatic carcinoma and A549 lung adenocarcinoma cell lines (IC50 values of 10-20 nM).
(§3) Next a series of structural isomers were tested.

MCF-7 (breast) cells = assay: SRB growth inhibition assay, 96 hr exposure, MCF-7; format: cell-based, human
Method: as §1, §2, §3

[1] = system: human telomeric G-quadruplex DNA (F21T); assay: FRET melting assay, human telomeric quadruplex; format: binding; details: for change in melting temperature F21T 1 uM: 1 uM ligand; for change in melting temperature F21T 2 uM: 2 uM ligand; for selectivity for quadruplex over duplex DNA (in words): compared to the n=3 compounds
From the text: (§4) The ability of the naphthalene diimide compounds to stabilize DNA sequences was investigated using a fluorescence resonance energy transfer (FRET) assay modified to be used as a high-throughput screen in a 96-well format. Several quadruplex sequences were studied (the human telomeric G-quadruplex DNA sequence 5′-FAM-d(GGG[TTAGGG]3)-TAMRA-3′ and the duplex sequence 5′-FAM-dTATAGCTATA-HEG-TATAGCTATA-TAMRA-3′ (HEG linker: [(—CH2—CH2—O—)6])), as well as two overlapping sequences from the HSP90 promoter region (HSP90a and HSP90b):
(§5) The labelled oligonucleotides have attached to them the donor fluorophore FAM: 6-carboxyfluorescein and the acceptor fluorophore TAMRA: 6-carboxytetramethylrhodamine. The FRET probe sequences were diluted from stock to the correct concentration (400 nM) in a 60 mM potassium cacodylate buffer (pH 7.4) and then annealed by heating to 85° C. for 10 min, followed by cooling to room temperature in the heating block. The compound was stored as a 10 mM stock solution in DMSO; final solutions (at 2×concentration) were prepared using 10 mM HCl in the initial 1:10 dilution, after which 60 mM potassium cacodylate buffer (pH 7.4) was used in all subsequent steps. The maximum HCl concentration in the reaction volume (at a ligand concentration of 20 μM) is thus 200 μM, well within the range of the buffer used. Relevant controls were also performed to check for interference with the assay. 96-Well plates (MJ Research, Waltham, Mass.) were prepared by aliquoting 50 μl of the annealed DNA into each well, followed by 50 μl of the compound solutions. Measurements were made on a DNA Engine Opticon (MJ Research) with excitation at 450-495 nm and detection at 515-545 nm. Fluorescence readings were taken at intervals of 0.5° C. in the range 30-100° C., with a constant temperature being maintained for 30 s prior to each reading to ensure a stable value. Final analysis of the data was carried out using a script written in the program Origin 7.0 (OriginLab Corp., Northampton, Mass.). The advanced curve-fitting function in Origin 7.0 was used for calculation of ΔTm values. All determinations were performed in triplicate or better. Esds in ΔTm are ±0.1° C.
The ability of compounds 3a-h to stabilize a human telomeric quadruplex was assessed by a high-throughput FRET (Fluorescence Resonance Energy Transfer) melting technique. […] None of the furan tetrahydrofuran, pyranose or acyclic ether compounds has any effect on quadruplex or duplex stability.
(§6) The T-loop sequence represents duplex DNA.

duplex DNA (T-loop) = assay: FRET melting assay, duplex DNA; format: binding; details: for change in melting temperature Tloop 1 uM: 1 uM ligand; for change in melting temperature Tloop 2 uM: 2 uM ligand
From the text: as §4, §5, §6

[2] = system: WI38 normal human fibroblast cells; assay: SRB growth inhibition assay, 96 hr exposure, WI38; format: cell-based
Method: as §1
as §2, with “nM). […]” for “nM).”

[3] = system: HSP90b promoter quadruplex sequence; assay: FRET melting assay, Hsp90B quadruplex; format: binding; details: for change in melting temperature Hsp90B 1 uM: 1 uM ligand; for change in melting temperature Hsp90B 2 uM: 2 uM ligand
From the text: as §4
as §5, with “±0.1° C. […]” for “±0.1° C.”

[4] = system: HSP90a promoter quadruplex sequence; assay: FRET melting assay, Hsp90A quadruplex; format: binding; details: for change in melting temperature Hsp90A 1 uM: 1 uM ligand; for change in melting temperature Hsp90A 2 uM: 2 uM ligand
From the text: as §4
as §5, with “±0.1° C. […]” for “±0.1° C.”

[5] = system: MiaPaCa2 (pancreatic) cells; assay: SRB growth inhibition assay, MiaPaCa2; format: cell-based, human; details: SRB assay, 96 hr exposure
Method: as §1, §2
Dose-response curves were used to guide the choice of compound concentration and time-points for the array experiments (FIG. 2a). […] To explore this response continuum the transcriptional signature of cells exposed for 24 h to 20 nM, 40 nM, 80 nM concentrations of 3d, or solvent alone as control, was analysed as described in Materials and Methods.
as §3

A549 (lung) cells = assay: SRB growth inhibition assay, 96 hr exposure, A549; format: cell-based, human
Method: as §1, §2, §3

786-O (renal) cells = assay: SRB growth inhibition assay, 96 hr exposure, 786-O; format: cell-based, human; details: SRB assay, 96 hr exposure
Method: as §1, §2, §3

Panc1 (pancreatic) cells = assay: SRB growth inhibition assay, 96 hr exposure, Panc1; format: cell-based, human; details: 96 hr exposure
Method: as §1, §2, §3

[6] = Homo sapiens, A549, 96 hr exposure

Row | Compound | IC50 (RCC4 (renal) cells; Homo sapiens, RCC4) [nM] | IC50 (MCF-7 (breast) cells; Homo sapiens, MCF7) [nM] | change in melting temperature F21T 1 uM [1] | change in melting temperature F21T 2 uM [1] | change in melting temperature Tloop 1 uM (duplex DNA (T-loop)) | change in melting temperature Tloop 2 uM (duplex DNA (T-loop)) | IC50 ([2]; Homo sapiens, WI-38) [nM] | change in melting temperature Hsp90B 1 uM [3] | change in melting temperature Hsp90B 2 uM [3] | change in melting temperature Hsp90A 1 uM [4] | change in melting temperature Hsp90A 2 uM [4] | IC50 ([5]; Homo sapiens, MIA PaCa-2) [nM] | IC50 (A549 (lung) cells; [6]) [nM] | IC50 (786-O (renal) cells; Homo sapiens, 786-0) [nM] | also measured
1 | CN1CCN(CCCNc2cc3c4c(c(NCCCN5CCN(C)CC5)cc5c4c2C(=O)N(CC2CCCO2)C5=O)C(=O)N(CC2CCCO2)C3=O)CC1 (centres unmarked) [MM10] | > 10000 | > 10000 | 23 | 26 | 0 | 0 | > 10000 | 21 | 28 | 27 | 30 | 5650 ± 930 | 5570 ± 870 | > 10000 | 
2 | CN1CCN(CCNc2cc3c4c(c(NCCN5CCN(C)CC5)cc5c4c2C(=O)N(CCCN2CCOCC2)C5=O)C(=O)N(CCCN2CCOCC2)C3=O)CC1 [MM47] | 280 ± 60 | 30 ± 10 | 28 | 33 | 8 | 12 | 2460 ± 20 | 31 | 34 | 32 | 36 | 10 ± 10 | 23 ± 6 |  | 
3 | CN1CCN(CCCN2C(=O)c3cc(NCC4CCCO4)c4c5c(cc(NCC6CCCO6)c(c35)C2=O)C(=O)N(CCCN2CCN(C)CC2)C4=O)CC1 (racemic) [SKM038] |  |  | <2 | 15 | 0 | 0 |  | 13 | 17 | 21 | 23 |  |  |  | IC50 (RCC4 (renal) cells): 3000 ± 170 nM; IC50 (Panc1 (pancreatic) cells): 1500 ± 170 nM; IC50 (MCF-7 (breast) cells): 560 ± 34 nM; IC50 [2]: 2300 ± 80 nM; IC50 [5]: 95 ± 3 nM; IC50 (A549 (lung) cells; 96 hr exposure): 160 ± 2 nM; IC50 (786-O (renal) cells): 390 ± 20 nM
4 | CN1CCN(CCCNc2cc3c4c(c(NCCCN5CCN(C)CC5)cc5c4c2C(=O)N(CCN2CCOCC2)C5=O)C(=O)N(CCN2CCOCC2)C3=O)CC1 [MM45] | 1750 ± 180 | 170 ± 10 | 27 | 31 | 0 | 1 | 610 ± 20 | 29 | 34 | 34 | 36 | 40 ± 10 | 1550 ± 20 | 630 ± 60 | 
5 | CN1CCN(CCCNc2cc3c4c(c(NCCCN5CCN(C)CC5)cc5c4c2C(=O)N(CCN2CCOCC2)C5=O)C(=O)N(CCN2CCOCC2)C3=O)CC1 [Compound 3f, 4,9-bis((3-(4-methylpiperazin-1-yl)propyl)amino)-2,7-bis(2-morpholinoethyl)benzo[lmn][3,8]phenanthroline-1,3,6,8(2H,7H)-tetraone] |  |  |  |  |  |  |  |  |  |  |  |  |  |  | selectivity for quadruplex over duplex DNA (in words) [1]: superior selectivity for quadruplex over duplex DNA
6 | CN1CCN(CCCNc2cc3c4c(c(NCCCN5CCN(C)CC5)cc5c4c2C(=O)N(CC2CCOCC2)C5=O)C(=O)N(CC2CCOCC2)C3=O)CC1 [MM33] | 8380 ± 500 | 3120 ± 130 | <2 | <2 | 0 | 0 | 12650 ± 110 | <2 | <2 | <2 | <2 | 2500 ± 10 | 2920 ± 10 | 1200 ± 30 | 
7 | COCCCN1C(=O)c2cc(NCCCN3CCN(C)CC3)c3c4c(cc(NCCCN5CCN(C)CC5)c(c24)C1=O)C(=O)N(CCCOC)C3=O [MM43] | 10500 ± 140 | 5620 ± 150 | <2 | 22 | 0 | 0 | 3320 ± 500 | 24 | 29 | 29 | 32 | 2790 ± 90 | 2540 ± 10 | 7170 ± 410 | 
8 | CN1CCN(CCNc2cc3c4c(c(NCCN5CCN(C)CC5)cc5c4c2C(=O)N(CCN2CCOCC2)C5=O)C(=O)N(CCN2CCOCC2)C3=O)CC1 [Compound 3g, 4,9-bis((2-(4-methylpiperazin-1-yl)ethyl)amino)-2,7-bis(2-morpholinoethyl)benzo[lmn][3,8]phenanthroline-1,3,6,8(2H,7H)-tetraone] |  |  |  |  |  |  |  |  |  |  |  |  |  |  | selectivity for quadruplex over duplex DNA (in words) [1]: superior selectivity for quadruplex over duplex DNA
